Source: article PMC8011991 (Journal of medicinal chemistry, 2020)
“Also recorded” adds a separate entry of the source.

Assays:
[1] = in vitro; settings: human, microsomes
[2] = tested on: NL4–3 Env pseudo-typed HIV-1 virus; experiment: ELISA-based quantification of capsid; assay type: cell-based; settings: 10 μM compound
[3] = In vivo pharmacokinetics in rats; settings: rat, iv 2 mg/kg
[4] = tested on: Kunming mice; experiment: Single-dose acute toxicity in mice; settings: intragastric
[5] = target: recombinant HIV-1 RT (Human immunodeficiency virus type 1 group M subtype B, UniProt P03366); experiment: Recombinant HIV-1 RT inhibitory assay; assay type: biochemical; settings: at 0.2 μM

Row | SMILES | CLint scaled [1] | increase of CA/p24 content of the produced virus compared to the DMSO control [2] | other results
1 | O=C(O)Cc1ccccc1Nc1c(Cl)cccc1Cl [Diclofenac] | 84.3 mL/min/kg | – | –
2 | Cc1[nH]c2ccccc2c1CC(=O)N[C@@H](Cc1ccccc1)C(=O)N(C)c1ccccc1 [PF-74, reference compound] | 972 mL/min/kg | around 40% | –
3 | COc1ccc(N(C)C(=O)[C@H](Cc2ccccc2)NC(=O)CNS(=O)(=O)c2cccc(F)c2)cc1 [Compound 6k, (S)-2-(2-((3-fluorophenyl)sulfonamido)acetamido)-N-(4-methoxyphenyl)-N-methyl-3-phenylpropanamide] | – | 0–20% | –
4 | COc1ccc(N(C)C(=O)[C@H](Cc2ccccc2)NC(=O)CN2C(=O)Nc3ccccc3S2(=O)=O)cc1 [Compound 8a, (S)-2-(2-(1,1-dioxido-3-oxo-3,4-dihydro-2H-benzo[e][1,2,4]thiadiazin-2-yl)acetamido)-N-(4-methoxyphenyl)-N-methyl-3-phenylpropanamide] | – | 0–20% | –
5 | COc1ccc(N(C)C(=O)[C@H](Cc2ccccc2)NC(=O)CN2CCN(S(=O)(=O)c3ccc(N)cc3)CC2=O)cc1 [Compound 11l, (S)-2-(2-(4-((4-aminophenyl)sulfonyl)-2-oxopiperazin-1-yl)acetamido)-N-(4-methoxyphenyl)-N-methyl-3-phenylpropanamide] | 308 mL/min/kg | 0–20% | V [3]: 5.7524 L/kg; death after single dose ([4]; 1000 mg/kg): No death was observed; acute toxicity / tolerability ([4]; single dose 1000 mg/kg, one week): no acute toxicity; also recorded: well-tolerated; RT activity as compared to the DMSO control [5]: 95±15%
6 | C[C@]12CC[C@H]3[C@@H](CCC4=CC(=O)CC[C@@]43C)[C@@H]1CC[C@@H]2O [Testosteron^e, Testosterone] | 85.7 mL/min/kg | – | CLint(mic) (HLM 0.5 mg protein/mL): 95.2 µL/min/mg; Remaining (T=60min) (HLM 0.5 mg protein/mL, 60 min): 6.1%; Remaining (NCF=60min) (no cofactor (no NADPH), 60 min): 84.0%
